From patent EP3212201B1, “NUCLEOSIDE KINASE INHIBITORS” (BCI Pharma, priority 2014, dated 2016)

Legend:
Assay in all cases: FRET-based coupled-enzyme protein kinase inhibition assay
Format in all cases: biochemical
Conditions in all cases: compound at 10 µM, 1% DMSO
[1] = target: CSNK1G2 (CK1 gamma 2) (Homo sapiens, UniProt P78368)
How it was run: (§1)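 Inhibition was quantified ratiometrically, as coumarin over fluorescein emission following 400 nm excitation, on a doubly labeled peptide whose cleavage by development reagent requires it to remain unphosphorylated. Kinase reactions ran 60 min at room temperature with ATP at apparent Km.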

[2] = target: EGFR (ErbB1) (Homo sapiens, UniProt P00533)
How it was run: as §1

[3] = target: EPHA2 (Homo sapiens, UniProt P29317)
How it was run: as §1

[4] = target: T1, FLT3 (Homo sapiens, UniProt P36888)
T1 sequence (P36888 27-993): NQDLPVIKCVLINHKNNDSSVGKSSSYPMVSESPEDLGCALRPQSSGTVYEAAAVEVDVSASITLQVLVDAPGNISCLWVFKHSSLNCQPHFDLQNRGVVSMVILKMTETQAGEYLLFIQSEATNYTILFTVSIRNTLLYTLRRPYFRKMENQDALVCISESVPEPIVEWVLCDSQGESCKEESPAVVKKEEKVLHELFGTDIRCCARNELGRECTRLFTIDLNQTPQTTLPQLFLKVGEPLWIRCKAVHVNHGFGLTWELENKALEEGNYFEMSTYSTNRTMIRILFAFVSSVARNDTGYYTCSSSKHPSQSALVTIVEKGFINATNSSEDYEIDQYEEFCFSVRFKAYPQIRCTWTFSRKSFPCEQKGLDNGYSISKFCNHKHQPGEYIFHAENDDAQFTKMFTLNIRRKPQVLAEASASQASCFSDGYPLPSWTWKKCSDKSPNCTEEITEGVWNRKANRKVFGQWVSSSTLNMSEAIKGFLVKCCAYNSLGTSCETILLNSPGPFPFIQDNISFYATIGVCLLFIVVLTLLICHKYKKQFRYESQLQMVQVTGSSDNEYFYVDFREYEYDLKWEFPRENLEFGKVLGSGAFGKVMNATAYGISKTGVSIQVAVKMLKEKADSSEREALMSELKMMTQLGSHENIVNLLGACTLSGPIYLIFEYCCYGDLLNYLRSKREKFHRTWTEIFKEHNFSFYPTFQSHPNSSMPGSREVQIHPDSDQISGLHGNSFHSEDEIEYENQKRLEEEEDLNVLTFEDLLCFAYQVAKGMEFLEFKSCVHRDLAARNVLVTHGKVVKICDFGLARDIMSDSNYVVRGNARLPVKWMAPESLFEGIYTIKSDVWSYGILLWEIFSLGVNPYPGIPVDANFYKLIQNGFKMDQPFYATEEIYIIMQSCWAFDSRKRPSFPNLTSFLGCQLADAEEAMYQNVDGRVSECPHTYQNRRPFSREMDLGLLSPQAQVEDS
How it was run: as §1

[5] = target: FRAP1 (mTOR) (Homo sapiens, UniProt P42345)
How it was run: as §1

[6] = target: IGF1R (Homo sapiens, UniProt P08069)
How it was run: as §1

[7] = target: LCK (Homo sapiens, UniProt P06239)
How it was run: as §1

[8] = target: MAPK14 (p38 alpha) (Homo sapiens, UniProt Q16539)
How it was run: as §1

[9] = target: MAPK3 (ERK1) (Homo sapiens, UniProt P27361)
How it was run: as §1

[10] = target: MARK2 (Homo sapiens, UniProt Q7KZI7)
How it was run: as §1

[11] = target: PIM1 (Homo sapiens, UniProt P11309)
How it was run: as §1

[12] = target: SRC (Homo sapiens, UniProt P12931)
How it was run: as §1

Sequence of SRC (P12931 whole entry, species assumed): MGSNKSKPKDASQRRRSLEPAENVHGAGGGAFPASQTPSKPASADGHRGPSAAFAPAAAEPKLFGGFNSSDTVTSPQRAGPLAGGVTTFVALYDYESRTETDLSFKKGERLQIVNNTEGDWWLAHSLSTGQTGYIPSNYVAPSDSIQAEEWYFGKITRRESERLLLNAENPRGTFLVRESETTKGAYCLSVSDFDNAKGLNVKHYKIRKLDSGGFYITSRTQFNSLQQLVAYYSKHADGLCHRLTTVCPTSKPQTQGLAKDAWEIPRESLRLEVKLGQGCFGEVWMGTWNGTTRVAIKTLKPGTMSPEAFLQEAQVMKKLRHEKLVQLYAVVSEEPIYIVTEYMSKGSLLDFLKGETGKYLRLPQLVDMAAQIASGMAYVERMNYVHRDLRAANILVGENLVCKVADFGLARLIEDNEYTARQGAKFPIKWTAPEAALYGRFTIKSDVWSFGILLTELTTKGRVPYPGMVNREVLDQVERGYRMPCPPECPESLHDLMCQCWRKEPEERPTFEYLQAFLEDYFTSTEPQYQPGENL
Sequence of LCK (P06239 whole entry, species assumed): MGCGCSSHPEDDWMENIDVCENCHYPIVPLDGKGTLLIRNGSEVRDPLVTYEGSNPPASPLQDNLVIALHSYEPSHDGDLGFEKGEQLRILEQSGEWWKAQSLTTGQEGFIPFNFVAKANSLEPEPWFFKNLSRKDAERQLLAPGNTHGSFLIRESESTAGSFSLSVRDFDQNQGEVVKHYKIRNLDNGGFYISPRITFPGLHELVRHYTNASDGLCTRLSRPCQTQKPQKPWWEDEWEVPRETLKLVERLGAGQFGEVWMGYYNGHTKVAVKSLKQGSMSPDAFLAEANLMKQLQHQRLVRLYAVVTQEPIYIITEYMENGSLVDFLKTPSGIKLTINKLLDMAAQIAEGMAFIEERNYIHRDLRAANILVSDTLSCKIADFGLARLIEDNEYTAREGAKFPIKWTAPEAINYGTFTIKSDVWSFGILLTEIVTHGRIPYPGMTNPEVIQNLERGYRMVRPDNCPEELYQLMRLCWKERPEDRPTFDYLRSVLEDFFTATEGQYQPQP
Sequence of MAPK14 (p38 alpha) (Q16539 whole entry, species assumed): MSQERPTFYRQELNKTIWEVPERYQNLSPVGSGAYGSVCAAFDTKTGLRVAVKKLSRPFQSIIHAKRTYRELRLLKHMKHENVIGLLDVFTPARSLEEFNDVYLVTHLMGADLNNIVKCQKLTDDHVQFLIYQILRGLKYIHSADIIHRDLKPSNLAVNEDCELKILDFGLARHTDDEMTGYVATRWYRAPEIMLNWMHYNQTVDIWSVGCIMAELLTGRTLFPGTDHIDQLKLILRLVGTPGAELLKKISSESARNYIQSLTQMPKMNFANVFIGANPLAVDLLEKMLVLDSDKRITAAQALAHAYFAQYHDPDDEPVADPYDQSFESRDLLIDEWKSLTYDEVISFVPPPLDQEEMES
Sequence of MARK2 (Q7KZI7 whole entry, species assumed): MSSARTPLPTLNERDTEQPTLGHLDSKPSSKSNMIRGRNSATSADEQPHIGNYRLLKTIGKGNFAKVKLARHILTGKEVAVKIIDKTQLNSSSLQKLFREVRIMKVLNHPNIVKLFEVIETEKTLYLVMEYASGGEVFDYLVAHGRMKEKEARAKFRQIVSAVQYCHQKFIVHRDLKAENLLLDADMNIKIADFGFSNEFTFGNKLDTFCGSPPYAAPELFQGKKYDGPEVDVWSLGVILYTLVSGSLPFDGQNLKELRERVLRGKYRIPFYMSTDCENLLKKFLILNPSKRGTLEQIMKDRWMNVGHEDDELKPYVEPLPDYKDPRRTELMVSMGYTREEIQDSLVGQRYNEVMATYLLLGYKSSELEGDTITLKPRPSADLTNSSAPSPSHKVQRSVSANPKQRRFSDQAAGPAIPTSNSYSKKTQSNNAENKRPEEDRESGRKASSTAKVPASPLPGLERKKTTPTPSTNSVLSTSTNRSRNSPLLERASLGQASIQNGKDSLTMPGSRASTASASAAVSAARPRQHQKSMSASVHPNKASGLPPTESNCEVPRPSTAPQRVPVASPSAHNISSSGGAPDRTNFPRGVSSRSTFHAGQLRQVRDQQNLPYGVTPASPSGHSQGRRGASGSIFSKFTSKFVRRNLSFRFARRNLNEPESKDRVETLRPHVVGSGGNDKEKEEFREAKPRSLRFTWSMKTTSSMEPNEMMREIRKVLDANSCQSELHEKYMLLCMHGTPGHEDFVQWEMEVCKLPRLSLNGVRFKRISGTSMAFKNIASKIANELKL
Sequence of CSNK1G2 (CK1 gamma 2) (P78368 whole entry, species assumed): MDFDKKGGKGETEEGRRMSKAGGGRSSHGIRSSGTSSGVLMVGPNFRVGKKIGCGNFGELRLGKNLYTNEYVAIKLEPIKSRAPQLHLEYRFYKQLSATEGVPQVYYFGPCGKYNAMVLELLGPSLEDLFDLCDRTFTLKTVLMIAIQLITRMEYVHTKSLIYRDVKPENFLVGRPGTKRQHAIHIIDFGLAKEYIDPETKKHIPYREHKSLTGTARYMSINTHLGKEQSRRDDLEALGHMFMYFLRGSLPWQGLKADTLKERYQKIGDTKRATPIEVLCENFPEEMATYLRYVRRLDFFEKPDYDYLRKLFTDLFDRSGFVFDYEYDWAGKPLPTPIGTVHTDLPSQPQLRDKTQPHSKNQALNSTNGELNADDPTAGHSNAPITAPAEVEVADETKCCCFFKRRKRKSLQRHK
Sequence of EGFR (ErbB1) (P00533 25-1210, species assumed): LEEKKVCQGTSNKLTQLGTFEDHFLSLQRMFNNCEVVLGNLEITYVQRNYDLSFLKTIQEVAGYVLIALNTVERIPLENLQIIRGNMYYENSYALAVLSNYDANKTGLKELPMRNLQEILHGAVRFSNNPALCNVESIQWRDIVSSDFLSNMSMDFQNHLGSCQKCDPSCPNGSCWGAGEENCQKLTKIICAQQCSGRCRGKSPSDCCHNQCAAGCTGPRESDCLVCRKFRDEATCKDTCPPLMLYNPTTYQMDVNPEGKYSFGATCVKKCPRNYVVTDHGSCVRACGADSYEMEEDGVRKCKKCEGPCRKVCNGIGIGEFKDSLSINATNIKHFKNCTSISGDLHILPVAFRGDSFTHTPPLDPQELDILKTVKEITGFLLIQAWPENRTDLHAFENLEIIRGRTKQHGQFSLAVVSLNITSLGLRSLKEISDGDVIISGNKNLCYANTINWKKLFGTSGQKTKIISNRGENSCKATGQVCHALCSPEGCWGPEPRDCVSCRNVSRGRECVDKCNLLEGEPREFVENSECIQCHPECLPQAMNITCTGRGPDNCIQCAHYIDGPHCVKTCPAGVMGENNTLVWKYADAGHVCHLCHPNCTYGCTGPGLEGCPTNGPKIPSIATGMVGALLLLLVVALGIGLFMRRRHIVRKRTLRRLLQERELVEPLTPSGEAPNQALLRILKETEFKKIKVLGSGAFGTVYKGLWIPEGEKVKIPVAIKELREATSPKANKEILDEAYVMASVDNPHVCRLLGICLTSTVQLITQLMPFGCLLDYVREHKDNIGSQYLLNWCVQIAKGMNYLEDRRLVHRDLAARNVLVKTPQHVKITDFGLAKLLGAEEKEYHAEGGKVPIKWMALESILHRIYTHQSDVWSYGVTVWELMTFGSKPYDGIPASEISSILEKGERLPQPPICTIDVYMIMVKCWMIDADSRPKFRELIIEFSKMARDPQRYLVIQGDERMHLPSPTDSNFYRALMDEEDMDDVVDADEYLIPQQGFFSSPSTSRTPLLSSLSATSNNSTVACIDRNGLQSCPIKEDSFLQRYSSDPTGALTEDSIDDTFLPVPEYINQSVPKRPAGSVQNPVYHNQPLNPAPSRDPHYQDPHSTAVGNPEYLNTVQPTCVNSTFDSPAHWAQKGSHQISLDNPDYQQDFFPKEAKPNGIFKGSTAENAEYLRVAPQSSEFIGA
Sequence of MAPK3 (ERK1) (P27361 whole entry, species assumed): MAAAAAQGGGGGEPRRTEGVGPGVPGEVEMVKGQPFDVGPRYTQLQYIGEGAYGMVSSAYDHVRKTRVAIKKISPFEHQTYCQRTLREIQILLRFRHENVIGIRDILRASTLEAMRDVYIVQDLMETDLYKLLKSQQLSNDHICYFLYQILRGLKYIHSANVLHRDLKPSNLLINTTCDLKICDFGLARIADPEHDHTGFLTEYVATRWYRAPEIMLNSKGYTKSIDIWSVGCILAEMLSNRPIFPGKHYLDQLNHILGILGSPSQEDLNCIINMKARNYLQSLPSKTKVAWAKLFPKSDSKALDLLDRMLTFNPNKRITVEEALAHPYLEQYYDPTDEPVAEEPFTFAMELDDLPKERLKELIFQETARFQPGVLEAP
Sequence of PIM1 (P11309 whole entry, species assumed): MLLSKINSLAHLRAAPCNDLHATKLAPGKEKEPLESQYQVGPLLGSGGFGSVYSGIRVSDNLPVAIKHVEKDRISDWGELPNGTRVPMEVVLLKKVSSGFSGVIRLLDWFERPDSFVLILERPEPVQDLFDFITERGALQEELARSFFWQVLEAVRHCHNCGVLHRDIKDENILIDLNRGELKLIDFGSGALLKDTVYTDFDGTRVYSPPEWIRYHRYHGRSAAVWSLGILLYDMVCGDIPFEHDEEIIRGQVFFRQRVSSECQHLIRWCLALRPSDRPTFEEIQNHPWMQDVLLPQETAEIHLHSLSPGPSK

Compound Nc1ncnc2c1ncn2[C@@H]1O[C@H](COC(=O)N2CCS(=O)(=O)CC2)[C@@H](O)[C@H]1O [Compound C100] has an inhibition at 10 µM [1] of -1%, an inhibition at 10 µM [2] of 8% and an inhibition at 10 µM [3] of 4%. It also gave an inhibition at 10 µM [4] of 9%, an inhibition at 10 µM [5] of -2% and an inhibition at 10 µM [6] of 11%. It also gave an inhibition at 10 µM [7] of 9%, an inhibition at 10 µM [8] of -4% and an inhibition at 10 µM [9] of 10%. The inhibition at 10 µM [10] was 15%, the inhibition at 10 µM [11] was -1% and the inhibition at 10 µM [12] was 8%.
